Values of other authors as cited in patent US20220362242A1, “METHODS AND COMPOSITIONS FOR TREATING MOVEMENT DISORDERS” (Edgewise Therapeutics, Inc., priority 2018, published 2022).

Test system: embryos from zebrafish model of DMD
Settings: control vs BTS treated muscles, FIG. 2

## Cc1ccc(S(=O)(=O)NCc2ccccc2)cc1 [BTS, N-benzyl-p-tolyl-sulfonamide]
  protection of muscles from pathological muscle derangement: protect muscles from pathological muscle derangement
